Our source for the Kd values is article PMC10487316, “A high‐throughput microfluidic mechanoporation platform to enable intracellular delivery of cyclic peptides in cell‐based assays” (Bioengineering & Translational Medicine, 2023).

Where a SMILES comes first, the peptide text is derived from it. Bridges are numbered along the chain shown (N, C = ends). [ ]: non-standard residue; d: D form. Lys(N3) = [N-]=[N+]=NCCCC[C@H](N)C(=O)O; R8 = C=CCCCCCC[C@@](C)(N)C(=O)O; Cba = N[C@@H](CC1CCC1)C(=O)O; S5 = C=CCCC[C@](C)(N)C(=O)O; βAla = NCCC(=O)O

In the assay the target is T1, MDM2 (1–125) protein (Homo sapiens, UniProt Q00987).
T1 construct: made in house
T1 sequence (Q00987 1-125): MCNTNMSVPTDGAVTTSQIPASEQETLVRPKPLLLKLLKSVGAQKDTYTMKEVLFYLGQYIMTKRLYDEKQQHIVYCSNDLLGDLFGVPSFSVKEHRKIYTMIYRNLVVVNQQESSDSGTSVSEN
Briefly: MDM2 binding assay (fluorescence anisotropy competition). Conditions: competition vs 50 nM FAM-labeled 12/1 peptide, 250 nM MDM2; heat map of Figure 5a. Here is the method:
MDM2 protein generation and binding studies were performed as described.[17] […] The competing molecules were then titrated against the complex of the FAM‐labeled peptide and protein. Curve‐fitting was carried out using Prism 4.0 (GraphPad) to determine K D values. Readings were carried out with an Envision Multilabel Reader (PerkinElmer). […] All titrations were carried out in triplicate.
As for `CC(=O)N[C@H](C(=O)N[C@@H](CO)C(=O)N[C@@](C)(Cc1ccccc1)C(=O)N[C@]1(C)CCCCCCC=CCCC[C@@](C)(C(N)=O)NC(=O)[C@H](CC(C)C)NC(=O)[C@H](CC(C)C)NC(=O)[C@H](C)NC(=O)[C@H](Cc2c[nH]c3ccccc23)NC(=O)[C@H](Cc2ccc(O)cc2)NC(=O)[C@H](CCC(=O)O)NC1=O)[C@@H](C)O` [MP-159, Ac-Thr-Ser-(ɑ-Me-Phe)-R8*-Glu-Tyr-Trp-Ala-Leu-Leu-S5*-NH2], binding was put at a Kd of 15 nM. For `CC(C)C[C@@H]1NC(=O)[C@H](C)NC(=O)[C@H](Cc2c[nH]c3ccccc23)NC(=O)[C@H](Cc2ccc(O)cc2)NC(=O)[C@H](CCC(=O)O)NC(=O)[C@](C)(NC(=O)[C@H](Cc2ccccc2)NC(=O)[C@H](CO)NC(=O)[C@@H](NC(=O)[C@H](CO)NC(=O)CNC(=O)[C@H](CO)NC(=O)[C@H](CCCCN=[N+]=[N-])NC(=O)[C@H](CCC(=O)O)NC(=O)[C@@H](N)CCC(=O)O)[C@@H](C)O)CCCCCCC=CCCC[C@@](C)(C(N)=O)NC(=O)[C@H](CC(C)C)NC1=O` [MP-181, H-Glu-Glu-Lys(N3)-Ser-Gly-Ser-Thr-Ser-Phe-R8*-Glu-Tyr-Trp-Ala-Leu-Leu-S5*-NH2] (H-EE[Lys(N3)]SGSTSF[R8]EYWALL[S5]-NH2; staple 10-17), binding was put at a Kd of 17 nM. With `CC(=O)N[C@H](CC(C)C)C(=O)N[C@H](C(=O)N[C@@H](Cc1ccccc1)C(=O)N[C@@H](CCC(=O)O)C(=O)N[C@@H](CCC(=O)O)C(=O)N[C@@H](Cc1ccc(O)cc1)C(=O)N[C@@H](Cc1c[nH]c2ccccc12)C(=O)N[C@@H](C)C(=O)N[C@@H](CCC(N)=O)C(=O)N[C@@H](CC(C)C)C(=O)N[C@H](C(=O)N[C@@H](CO)C(N)=O)[C@@H](C)O)[C@@H](C)O` [MP-191] (Ac-[dL]TFEEYWAQLTS-NH2) the figure was 27 nM. Regarding `CC(C)C[C@H]1NC(=O)[C@@H](CCCCN)NC(=O)[C@@H](CCC(=O)O)NC(=O)[C@@H](Cc2ccc(C(F)(F)F)cc2)NC(=O)[C@@H](CC(N)=O)NC(=O)C2(CCCC=CCCCCCC[C@](C)(C(=O)N[C@H](C)C(=O)N[C@H](C)C(=O)N[C@H](C)C(=O)N[C@H](C)C(=O)N[C@H](C)C(=O)N[C@H](C)C(N)=O)NC(=O)[C@@H](CC(C)C)NC1=O)CCCC=CCCC[C@@](C)(N)C(=O)N[C@H](C)C(=O)N[C@H](Cc1c[nH]c3cc(F)ccc13)C(=O)N[C@H](Cc1ccc(O)cc1)C(=O)N2` (stereo partly drawn) [MP-231, H-R5*-DAla-DTrp(6-F)-DTyr-B5**-DAsn-DPhe(4-CF3)-DGlu-DLys-DLeu-DLeu-R8*-DAla-DAla-DAla-DAla-DAla-DAla-NH2], the Kd – broadly, the equilibrium constant for the complex coming apart – is 0.53 nM.

For the compound `CC(=O)N[C@@H](CC(C)C)C(=O)N[C@H](C(=O)N[C@@H](Cc1ccccc1)C(=O)NC(C)(C)C(=O)N[C@@H](CCC(=O)O)C(=O)N[C@@H](Cc1ccc(O)cc1)C(=O)N[C@@H](Cc1c[nH]c2ccccc12)C(=O)N[C@@H](CCC(N)=O)C(=O)N[C@@H](CC(C)C)C(=O)N[C@@H](CC1CCC1)C(=O)NC(C)(C)C(=O)N[C@@H](CO)C(=O)N[C@@H](C)C(=O)N[C@@H](C)C(=O)O)[C@@H](C)O` [MP-788, Ac-Leu-Thr-Phe-Aib-Glu-Tyr-Trp-Gln-Leu-Cba-Aib-Ser-Ala-Ala-OH], the Kd is 88 nM.

The compound `CC(=O)N[C@@H](CC(C)C)C(=O)N[C@H](C(=O)N[C@@H](Cc1ccccc1)C(=O)N[C@@H](CCC(=O)O)C(=O)N[C@@H](CCC(=O)O)C(=O)N[C@@H](Cc1ccc(O)cc1)C(=O)N[C@@H](Cc1c[nH]c2ccccc12)C(=O)N[C@@H](C)C(=O)N[C@H](CCC(N)=O)C(=O)N[C@@H](CC(C)C)C(=O)N[C@H](C(=O)N[C@@H](CO)C(N)=O)[C@@H](C)O)[C@@H](C)O` [MP-793] (Ac-LTFEEYWA[dQ]LTS-NH2) showed a dissociation constant Kd of 115 nM. With `CC(=O)N[C@@H](CCCCN=[N+]=[N-])C(=O)NCCC(=O)N[C@@H](CC(C)C)C(=O)N[C@H](C(=O)N[C@@H](Cc1ccccc1)C(=O)N[C@]1(C)CCCCCCC=CCCC[C@@](C)(C(=O)N[C@@H](CCC(=O)O)C(=O)N[C@@H](C)C(=O)N[C@@H](C)C(=O)N[C@@H](C)C(=O)N[C@@H](C)C(=O)N[C@H](C)C(N)=O)NC(=O)[C@H](CC2CCC2)NC(=O)[C@H](CCC(N)=O)NC(=O)[C@H](C)NC(=O)[C@H](Cc2c[nH]c3ccccc23)NC(=O)[C@H](Cc2ccc(O)cc2)NC(=O)[C@H](CCC(=O)O)NC1=O)[C@@H](C)O` [MP-834, Ac-Lys(N3)-betaAla-Leu-Thr-Phe-R8*-Glu-Tyr-Trp-Ala-Gln-Cba-S5*-Glu-Ala-Ala-Ala-Ala-DAla-NH2] (Ac-[Lys(N3)][βAla]LTF[R8]EYWAQ[Cba][S5]EAAAA[dA]-NH2; staple 6-13) the figure was 0.97 nM; with `CC(C)C[C@@H]1NC(=O)[C@H](C)NC(=O)[C@H](Cc2c[nH]c3ccccc23)NC(=O)[C@H](Cc2ccc(O)cc2)NC(=O)[C@H](CCC(=O)O)NC(=O)[C@](C)(NC(=O)[C@H](Cc2ccccc2)NC(=O)[C@H](CO)NC(=O)[C@@H](NC(=O)[C@H](CO)NC(=O)CNC(=O)[C@H](CO)NC(=O)[C@H](CCCCN=[N+]=[N-])NC(=O)[C@H](CCC(=O)O)NC(=O)[C@H](CCC(=O)O)NC(=O)[C@@H](N)CCC(=O)O)[C@@H](C)O)CCCCCCC=CCCC[C@@](C)(C(N)=O)NC(=O)[C@H](CC(C)C)NC1=O` [MP-948, NH2-Glu-Glu-Glu-Lys(N3)-Ser-Gly-Ser-Thr-Ser-Phe-R8*-Glu-Tyr-Trp-Ala-Leu-Leu-S5*-NH2] (H-EEE[Lys(N3)]SGSTSF[R8]EYWALL[S5]-NH2; staple 11-18), 0.85 nM. With Ac-LTFEEYWAQLTS-NH2 [MP-190] the figure was 17 nM.
